Data published in paper PMC7232187, “High-Throughput Screening of the ReFRAME Library Identifies Potential Drug Repurposing Candidates for Trypanosoma cruzi” (Microorganisms, 2020).
Read-outs that look alike come from different tables or passages of the source.

Legend:
CA-I/72 T. cruzi = assay: Phenotypic high-content imaging assay, intracellular T. cruzi amastigotes in C2C12 host cells; format: cell-based, Trypanosoma cruzi; conditions: for Selectivity Index (SI): SI = CC50 (C2C12) / EC50 (T. cruzi CA-I/72); for EC50: Trypanosoma cruzi, read-out: EC50 CA-I/72 T. cruzi
Protocol: C2C12 mouse myoblasts (ATCC CRL-1772) and CA-I/72 T. cruzi (kindly donated by J. Dvorak, NIH) were cultured in Dulbecco’s Modified Eagle Medium (Invitrogen, Carlsbad, CA, USA), supplemented with 5% fetal bovine serum (Sigma Aldrich, St. Louis, MO, USA) and 1% penicillin-streptomycin (Invitrogen, Carlsbad, CA, USA) at 37 °C and 5% CO2 essentially as described [11]. Passaging of CA-I/72 T. cruzi was conducted weekly via co-culture with C2C12 host cells.
Compounds from the ReFRAME library, benznidazole (Sigma Alderich, St. Louis, MO, USA) and DMSO (Sigma Alderich, St. Louis, MO, USA), were transferred to black 1536-well plates (Greiner Bio One, Kremsmünster, Austria) with clear bottoms using an Acoustic Transfer System (ATS) instrument (EDC Biosystems, Fremont, CA, USA). C2C12 cells were seeded at a density of 100 cells per well, and CA-I/72 T. cruzi parasites were seeded at a density of 1500 cells per well, using a Multidrop Combi liquid handler (Thermo Scientific, Waltham, MA, USA). Plates were incubated at 37 °C and 5% CO2 for 72 h in humidified trays to reduce edge effect. Following this incubation, paraformaldehyde (4% final concentration) in 1× phosphate buffered saline (PBS, Invitrogen, 10010023) was used to fix the cells for 1 h. The cells were then subsequently treated with 5 µg/mL DAPI staining solution (Sigma Aldrich, D9542) for 1 h. Next, the plates were imaged using an ImageXpress Micro XLS automated high-content imager (Molecular Devices, San Jose, CA, USA), using the 10× fluorescence objective. Images were analyzed automatically using a custom image analysis module [9, 11].
Compounds from the ReFRAME library were pre-spotted on 1536 clear-bottom black well plates in 100% dimethylsulfoxide (DMSO) for a final concentration of 10 µM in 10 µL final volume (and 0.1% DMSO final concentration). C2C12 mouse myoblasts and CA-I/72 strain T. cruzi trypomastigotes were added to the plate in a 1:15 infection ratio and incubated for 72 h at 37 °C and 5% CO2. Cells were then fixed with 4% paraformaldehyde (final concentration), and stained with 5 µg/mL of 4’,6-diamidino-2-phenylindole (DAPI) to highlight the nuclei from the host cells and parasites. Using an ImageXpress Micro XLS automated microscope (10× magnification setting), fluorescence images of C2C12 and T. cruzi amastigote nuclei were acquired for each well, and the number of host cell nuclei and amastigote nuclei were automatically determined using a custom image analysis module as previously described [9, 10, 11] […] Parasite amastigote nuclei were selectively counted over trypomastigote nuclei, via distance gating of parasitic nuclei distance from host cell nuclei in the microscopy images.

[1] = Host cell toxicity by nuclei counting in the phenotypic high-content imaging assay; conditions: mouse
Protocol: C2C12 mouse myoblasts (ATCC CRL-1772) and CA-I/72 T. cruzi (kindly donated by J. Dvorak, NIH) were cultured in Dulbecco’s Modified Eagle Medium (Invitrogen, Carlsbad, CA, USA), supplemented with 5% fetal bovine serum (Sigma Aldrich, St. Louis, MO, USA) and 1% penicillin-streptomycin (Invitrogen, Carlsbad, CA, USA) at 37 °C and 5% CO2 essentially as described. Passaging of CA-I/72 T. cruzi was conducted weekly via co-culture with C2C12 host cells.
Compounds from the ReFRAME library, benznidazole (Sigma Alderich, St. Louis, MO, USA) and DMSO (Sigma Alderich, St. Louis, MO, USA), were transferred to black 1536-well plates (Greiner Bio One, Kremsmünster, Austria) with clear bottoms using an Acoustic Transfer System (ATS) instrument (EDC Biosystems, Fremont, CA, USA). C2C12 cells were seeded at a density of 100 cells per well, and CA-I/72 T. cruzi parasites were seeded at a density of 1500 cells per well, using a Multidrop Combi liquid handler (Thermo Scientific, Waltham, MA, USA). Plates were incubated at 37 °C and 5% CO2 for 72 h in humidified trays to reduce edge effect. Following this incubation, paraformaldehyde (4% final concentration) in 1× phosphate buffered saline (PBS, Invitrogen, 10010023) was used to fix the cells for 1 h. The cells were then subsequently treated with 5 µg/mL DAPI staining solution (Sigma Aldrich, D9542) for 1 h. Next, the plates were imaged using an ImageXpress Micro XLS automated high-content imager (Molecular Devices, San Jose, CA, USA), using the 10× fluorescence objective. Images were analyzed automatically using a custom image analysis module.
Compounds from the ReFRAME library were pre-spotted on 1536 clear-bottom black well plates in 100% dimethylsulfoxide (DMSO) for a final concentration of 10 µM in 10 µL final volume (and 0.1% DMSO final concentration). C2C12 mouse myoblasts and CA-I/72 strain T. cruzi trypomastigotes were added to the plate in a 1:15 infection ratio and incubated for 72 h at 37 °C and 5% CO2. Cells were then fixed with 4% paraformaldehyde (final concentration), and stained with 5 µg/mL of 4’,6-diamidino-2-phenylindole (DAPI) to highlight the nuclei from the host cells and parasites. Using an ImageXpress Micro XLS automated microscope (10× magnification setting), fluorescence images of C2C12 and T. cruzi amastigote nuclei were acquired for each well, and the number of host cell nuclei and amastigote nuclei were automatically determined using a custom image analysis module as previously described (Figure 1). Parasite amastigote nuclei were selectively counted over trypomastigote nuclei, via distance gating of parasitic nuclei distance from host cell nuclei in the microscopy images.
Infection levels were calculated as a ratio of the number of T. cruzi amastigotes per C2C12 host cell, as determined by nuclei counting. Compound toxicity was determined by dividing the number of host cell nuclei in a drug-treated well by the average of the vehicle controls. For both infection ratios and cell viability ratios, values were normalized to the vehicle controls to determine percent activity and toxicity, respectively. Control wells containing uninfected C2C12 cells, infected C2C12 cells with 0.1% DMSO, and infected C2C12 cells with 0.1% DMSO and 50 µM benznidazole were prepared in each plate for data normalization. […] Hit selection cutoffs for the primary screen were set at 70% antiparasitic activity (70% parasite reduction compared to untreated controls) and 50% host cell viability at 10 µM compound compared to untreated controls (represents approximately three standard deviations from the average of the untreated controls).

[2] = intracellular amastigotes in C2C12, 72 h, 10-point 3-fold dose response in duplicate, +/- SE
[3] = C2C12 mouse myoblasts co-cultured with CA-I/72 T. cruzi

Structure (SMILES) | Selectivity Index (SI) (CA-I/72 T. cruzi) | EC50 (CA-I/72 T. cruzi; [2]) [nM] | CC50 at 72 h [1, 3] [nM] | EC50 (CA-I/72 T. cruzi; C2C12, 72 h) [nM] | CC50 at 72 h [1] [nM]
COc1ccccc1N1CCN(CCCCn2c(=O)sc3cc(CCN4CCC(C(=O)c5ccc(F)cc5)CC4)ccc32)CC1 [3-[4-[4-(2-Methoxyphenyl)piperazine-1-yl]butyl]-6-[2-[4-(4-fluorobenzoyl)piperidine-1-yl]ethyl]benzothiazole-2(3H)-one] | 145 | 22 | 3190 | – | –
C=CC(=O)N1CC[C@@H](Oc2nc(Nc3ccc(N4CCC(N5CCN(C)CC5)CC4)cc3)c(C(N)=O)nc2CC)C1 [ASP-8273, naquotinib] | 191 | 2.7 | 515 | – | –
C=C(NNC(=S)NNC(=S)Nc1ccccc1Cl)c1ccccn1 [348U87, 2-acetylpyridine 5-[(2-chloroanilino)-thiocarbonyl]-thiocarbonohydrazone] | 1294 | 0.63 | 815 | – | –
N#Cc1ccc(Cn2cncc2CN2CCN(c3cccc(Cl)c3)C(=O)C2)cc1Oc1ccccc1 [Prenyl-IN-1] | 10 | 18 | 182 | – | –
COc1cc2c3c(n(CCCNCCO)c(=O)c2cc1OC)-c1cc2c(cc1C3=O)OCO2 [NSC-706744] | 214 | – | – | 0.44 | 94
O=P(O)(O)C(NC1CCCCCC1)P(=O)(O)O [Incadronate Disodium, incadronate disodium] | >20 | 480 | – | – | > 10000
Cc1cccc2nc3cccc(C(=O)NCCNCCNCCNC(=O)c4cccc5nc6cccc(C)c6nc45)c3nc12 [XR 5944] | 13 | 3.5 | 46 | – | –
